Reference: patent US20160009693A1, “HERBICIDAL COMPOUNDS” (SYNGENTA LIMITED, priority 2013, published 2016)

Tested on: Setaria faberi (SETFA)
Test: Herbicidal glasshouse test, pre-emergence, SETFA
Assay type: in vivo
Details: applied at 1000 g/h, evaluated after 13 days

SMILES	PRE Application SETFA, percentage damage (five point scale)
Cc1ccc(-n2c(=O)c(C(=O)Nc3nnnn3C)nn(C)c2=O)cc1C [Compound 1.026]	5 (5=80-100%)
Cn1nnnc1NC(=O)c1nn(C)c(=O)n(-c2ccc(Br)cc2)c1=O [Compound 1.027]	5 (5=80-100%)
Cn1nnnc1NC(=O)c1nn(C)c(=O)n(-c2cccc(C(F)(F)F)c2)c1=O [Compound 1.028]	5 (5=80-100%)
Cn1nnnc1NC(=O)c1nn(C)c(=O)n(-c2ccc(OC(F)(F)F)c(F)c2)c1=O [Compound 1.029]	5 (5=80-100%)
Cn1nnnc1NC(=O)c1nn(C)c(=O)n(-c2ccc([N+](=O)[O-])cc2)c1=O [Compound 1.031]	4 (4=60-79%)

Tested on: Setaria faberi (SETFA)
Test: Herbicidal glasshouse test, post-emergence, SETFA
Assay type: in vivo
Details: applied at 1000 g/h, evaluated after 13 days
In short: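 Setaria faberi seeds were sown in standard soil in pots and grown for 8 days in a glasshouse at 24/16° C. day/night, 14 hours light and 65% humidity. The seedlings were then sprayed post-emergence with the active ingredient in acetone/water (50:50) containing 0.5% Tween 20. Afterwards they were kept under the same conditions, watered twice daily, and scored for percentage damage on a five point scale.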

SMILES	POST Application SETFA, percentage damage (five point scale)
Cc1ccc(-n2c(=O)c(C(=O)Nc3nnnn3C)nn(C)c2=O)cc1C [Compound 1.026]	5 (5=80-100%)
Cn1nnnc1NC(=O)c1nn(C)c(=O)n(-c2ccc(Br)cc2)c1=O [Compound 1.027]	5 (5=80-100%)
Cn1nnnc1NC(=O)c1nn(C)c(=O)n(-c2cccc(C(F)(F)F)c2)c1=O [Compound 1.028]	5 (5=80-100%)
Cn1nnnc1NC(=O)c1nn(C)c(=O)n(-c2ccc(OC(F)(F)F)c(F)c2)c1=O [Compound 1.029]	5 (5=80-100%)
Cn1nnnc1NC(=O)c1nn(C)c(=O)n(-c2ccc([N+](=O)[O-])cc2)c1=O [Compound 1.031]	5 (5=80-100%)

Tested on: Alopecurus myosuroides (ALOMY)
Test: Herbicidal glasshouse test, pre-emergence, ALOMY
Assay type: in vivo
Details: applied at 1000 g/h, evaluated after 13 days

SMILES	PRE Application ALOMY, percentage damage (five point scale)
Cc1ccc(-n2c(=O)c(C(=O)Nc3nnnn3C)nn(C)c2=O)cc1C [Compound 1.026]	5 (5=80-100%)
Cn1nnnc1NC(=O)c1nn(C)c(=O)n(-c2ccc(Br)cc2)c1=O [Compound 1.027]	5 (5=80-100%)
Cn1nnnc1NC(=O)c1nn(C)c(=O)n(-c2cccc(C(F)(F)F)c2)c1=O [Compound 1.028]	5 (5=80-100%)
Cn1nnnc1NC(=O)c1nn(C)c(=O)n(-c2ccc(OC(F)(F)F)c(F)c2)c1=O [Compound 1.029]	5 (5=80-100%)
Cn1nnnc1NC(=O)c1nn(C)c(=O)n(-c2ccc([N+](=O)[O-])cc2)c1=O [Compound 1.031]	3 (3=40-59%)

Tested on: Echinochloa crus-galli (ECHCG)
Test: Herbicidal glasshouse test, pre-emergence, ECHCG
Assay type: in vivo
Details: applied at 1000 g/h, evaluated after 13 days
In short: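 Echinochloa crus-galli seeds were sown in standard soil in pots and grown for one day in a glasshouse at 24/16° C. day/night, 14 hours light and 65% humidity. Pre-emergence spraying used an aqueous solution of the active ingredient in acetone/water (50:50) with 0.5% Tween 20. Damage was scored after 13 days on a five point scale.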

SMILES	PRE Application ECHCG, percentage damage (five point scale)
Cc1ccc(-n2c(=O)c(C(=O)Nc3nnnn3C)nn(C)c2=O)cc1C [Compound 1.026]	5 (5=80-100%)
Cn1nnnc1NC(=O)c1nn(C)c(=O)n(-c2ccc(Br)cc2)c1=O [Compound 1.027]	5 (5=80-100%)
Cn1nnnc1NC(=O)c1nn(C)c(=O)n(-c2cccc(C(F)(F)F)c2)c1=O [Compound 1.028]	5 (5=80-100%)
Cn1nnnc1NC(=O)c1nn(C)c(=O)n(-c2ccc(OC(F)(F)F)c(F)c2)c1=O [Compound 1.029]	5 (5=80-100%)
Cn1nnnc1NC(=O)c1nn(C)c(=O)n(-c2ccc([N+](=O)[O-])cc2)c1=O [Compound 1.031]	4 (4=60-79%)

Tested on: Ipomoea hederacea (IPOHE)
Test: Herbicidal glasshouse test, pre-emergence, IPOHE
Assay type: in vivo
Details: applied at 1000 g/h, evaluated after 13 days

SMILES	PRE Application IPOHE, percentage damage (five point scale)
Cc1ccc(-n2c(=O)c(C(=O)Nc3nnnn3C)nn(C)c2=O)cc1C [Compound 1.026]	5 (5=80-100%)
Cn1nnnc1NC(=O)c1nn(C)c(=O)n(-c2ccc(Br)cc2)c1=O [Compound 1.027]	5 (5=80-100%)
Cn1nnnc1NC(=O)c1nn(C)c(=O)n(-c2cccc(C(F)(F)F)c2)c1=O [Compound 1.028]	5 (5=80-100%)
Cn1nnnc1NC(=O)c1nn(C)c(=O)n(-c2ccc(OC(F)(F)F)c(F)c2)c1=O [Compound 1.029]	5 (5=80-100%)
Cn1nnnc1NC(=O)c1nn(C)c(=O)n(-c2ccc([N+](=O)[O-])cc2)c1=O [Compound 1.031]	4 (4=60-79%)

Tested on: Solanum nigrum (SOLNI)
Test: Herbicidal glasshouse test, post-emergence, SOLNI
Assay type: in vivo
Details: applied at 1000 g/h, evaluated after 13 days

SMILES	POST Application SOLNI, percentage damage (five point scale)
Cc1ccc(-n2c(=O)c(C(=O)Nc3nnnn3C)nn(C)c2=O)cc1C [Compound 1.026]	5 (5=80-100%)
Cn1nnnc1NC(=O)c1nn(C)c(=O)n(-c2ccc(Br)cc2)c1=O [Compound 1.027]	5 (5=80-100%)
Cn1nnnc1NC(=O)c1nn(C)c(=O)n(-c2cccc(C(F)(F)F)c2)c1=O [Compound 1.028]	5 (5=80-100%)
Cn1nnnc1NC(=O)c1nn(C)c(=O)n(-c2ccc(OC(F)(F)F)c(F)c2)c1=O [Compound 1.029]	5 (5=80-100%)
Cn1nnnc1NC(=O)c1nn(C)c(=O)n(-c2ccc([N+](=O)[O-])cc2)c1=O [Compound 1.031]	5 (5=80-100%)

Tested on: Amaranthus retoflexus (AMARE)
Test: Herbicidal glasshouse test, pre-emergence, AMARE
Assay type: in vivo
Details: applied at 1000 g/h, evaluated after 13 days
In short: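 Amaranthus retoflexus seeds were sown in pots of standard soil and kept one day in a glasshouse at 24/16° C. (day/night), 14 hours light and 65% humidity. They were then sprayed pre-emergence with the active ingredient in acetone/water (50:50) containing 0.5% Tween 20. Plants grew under the same conditions, watered twice daily, and percentage damage was scored after 13 days.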

SMILES	PRE Application AMARE, percentage damage (five point scale)
Cc1ccc(-n2c(=O)c(C(=O)Nc3nnnn3C)nn(C)c2=O)cc1C [Compound 1.026]	5 (5=80-100%)
Cn1nnnc1NC(=O)c1nn(C)c(=O)n(-c2ccc(Br)cc2)c1=O [Compound 1.027]	5 (5=80-100%)
Cn1nnnc1NC(=O)c1nn(C)c(=O)n(-c2cccc(C(F)(F)F)c2)c1=O [Compound 1.028]	5 (5=80-100%)
Cn1nnnc1NC(=O)c1nn(C)c(=O)n(-c2ccc(OC(F)(F)F)c(F)c2)c1=O [Compound 1.029]	5 (5=80-100%)
Cn1nnnc1NC(=O)c1nn(C)c(=O)n(-c2ccc([N+](=O)[O-])cc2)c1=O [Compound 1.031]	5 (5=80-100%)

Tested on: Alopecurus myosuroides (ALOMY)
Test: Herbicidal glasshouse test, post-emergence, ALOMY
Assay type: in vivo
Details: applied at 1000 g/h, evaluated after 13 days

SMILES	POST Application ALOMY, percentage damage (five point scale)
Cc1ccc(-n2c(=O)c(C(=O)Nc3nnnn3C)nn(C)c2=O)cc1C [Compound 1.026]	5 (5=80-100%)
Cn1nnnc1NC(=O)c1nn(C)c(=O)n(-c2ccc(Br)cc2)c1=O [Compound 1.027]	5 (5=80-100%)
Cn1nnnc1NC(=O)c1nn(C)c(=O)n(-c2cccc(C(F)(F)F)c2)c1=O [Compound 1.028]	5 (5=80-100%)
Cn1nnnc1NC(=O)c1nn(C)c(=O)n(-c2ccc(OC(F)(F)F)c(F)c2)c1=O [Compound 1.029]	5 (5=80-100%)
Cn1nnnc1NC(=O)c1nn(C)c(=O)n(-c2ccc([N+](=O)[O-])cc2)c1=O [Compound 1.031]	4 (4=60-79%)

Tested on: Solanum nigrum (SOLNI)
Test: Herbicidal glasshouse test, pre-emergence, SOLNI
Assay type: in vivo
Details: applied at 1000 g/h, evaluated after 13 days
In short: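 Seeds of Solanum nigrum were sown in pots of standard soil and kept one day in a glasshouse at 24/16° C. day/night, 14 hours light and 65% humidity. For the pre-emergence treatment they were then sprayed with an aqueous solution of the active ingredient formulated in acetone/water (50:50) containing 0.5% Tween 20. Plant damage was rated after 13 days.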

SMILES	PRE Application SOLNI, percentage damage (five point scale)
Cc1ccc(-n2c(=O)c(C(=O)Nc3nnnn3C)nn(C)c2=O)cc1C [Compound 1.026]	5 (5=80-100%)
Cn1nnnc1NC(=O)c1nn(C)c(=O)n(-c2ccc(Br)cc2)c1=O [Compound 1.027]	5 (5=80-100%)
Cn1nnnc1NC(=O)c1nn(C)c(=O)n(-c2cccc(C(F)(F)F)c2)c1=O [Compound 1.028]	5 (5=80-100%)
Cn1nnnc1NC(=O)c1nn(C)c(=O)n(-c2ccc(OC(F)(F)F)c(F)c2)c1=O [Compound 1.029]	5 (5=80-100%)
Cn1nnnc1NC(=O)c1nn(C)c(=O)n(-c2ccc([N+](=O)[O-])cc2)c1=O [Compound 1.031]	5 (5=80-100%)

Tested on: Ipomoea hederacea (IPOHE)
Test: Herbicidal glasshouse test, post-emergence, IPOHE
Assay type: in vivo
Details: applied at 1000 g/h, evaluated after 13 days

SMILES	POST Application IPOHE, percentage damage (five point scale)
Cc1ccc(-n2c(=O)c(C(=O)Nc3nnnn3C)nn(C)c2=O)cc1C [Compound 1.026]	5 (5=80-100%)
Cn1nnnc1NC(=O)c1nn(C)c(=O)n(-c2ccc(Br)cc2)c1=O [Compound 1.027]	5 (5=80-100%)
Cn1nnnc1NC(=O)c1nn(C)c(=O)n(-c2cccc(C(F)(F)F)c2)c1=O [Compound 1.028]	5 (5=80-100%)
Cn1nnnc1NC(=O)c1nn(C)c(=O)n(-c2ccc(OC(F)(F)F)c(F)c2)c1=O [Compound 1.029]	5 (5=80-100%)
Cn1nnnc1NC(=O)c1nn(C)c(=O)n(-c2ccc([N+](=O)[O-])cc2)c1=O [Compound 1.031]	2 (2=20-39%)

Tested on: Echinochloa crus-galli (ECHCG)
Test: Herbicidal glasshouse test, post-emergence, ECHCG
Assay type: in vivo
Details: applied at 1000 g/h, evaluated after 13 days
In short: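 Echinochloa crus-galli (ECHCG) seeds were sown in standard soil in pots and grown for 8 days in a glasshouse at 24/16° C. day/night, 14 hours light and 65% humidity. The young plants were then sprayed post-emergence with the active ingredient in acetone / water (50:50) containing 0.5% Tween 20. Damage was scored after 13 days.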

SMILES	POST Application ECHCG, percentage damage (five point scale)
Cc1ccc(-n2c(=O)c(C(=O)Nc3nnnn3C)nn(C)c2=O)cc1C [Compound 1.026]	5 (5=80-100%)
Cn1nnnc1NC(=O)c1nn(C)c(=O)n(-c2ccc(Br)cc2)c1=O [Compound 1.027]	5 (5=80-100%)
Cn1nnnc1NC(=O)c1nn(C)c(=O)n(-c2cccc(C(F)(F)F)c2)c1=O [Compound 1.028]	5 (5=80-100%)
Cn1nnnc1NC(=O)c1nn(C)c(=O)n(-c2ccc(OC(F)(F)F)c(F)c2)c1=O [Compound 1.029]	5 (5=80-100%)
Cn1nnnc1NC(=O)c1nn(C)c(=O)n(-c2ccc([N+](=O)[O-])cc2)c1=O [Compound 1.031]	5 (5=80-100%)

Tested on: Amaranthus retoflexus (AMARE)
Test: Herbicidal glasshouse test, post-emergence, AMARE
Assay type: in vivo
Details: applied at 1000 g/h, evaluated after 13 days
In short: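 Amaranthus retoflexus (AMARE) seeds were sown in pots of standard soil and grown in a glasshouse at 24/16° C. day/night, 14 hours light and 65% humidity for 8 days. The plants were then sprayed post-emergence with an aqueous solution of the active ingredient in acetone/water (50:50) with 0.5% Tween 20. Damage was scored after 13 days.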

SMILES	POST Application AMARE, percentage damage (five point scale)
Cc1ccc(-n2c(=O)c(C(=O)Nc3nnnn3C)nn(C)c2=O)cc1C [Compound 1.026]	5 (5=80-100%)
Cn1nnnc1NC(=O)c1nn(C)c(=O)n(-c2ccc(Br)cc2)c1=O [Compound 1.027]	5 (5=80-100%)
Cn1nnnc1NC(=O)c1nn(C)c(=O)n(-c2cccc(C(F)(F)F)c2)c1=O [Compound 1.028]	5 (5=80-100%)
Cn1nnnc1NC(=O)c1nn(C)c(=O)n(-c2ccc(OC(F)(F)F)c(F)c2)c1=O [Compound 1.029]	5 (5=80-100%)
Cn1nnnc1NC(=O)c1nn(C)c(=O)n(-c2ccc([N+](=O)[O-])cc2)c1=O [Compound 1.031]	5 (5=80-100%)
